“Also recorded” adds a separate entry of the source.
Experiments:
[1] = molecular target: Human neuromedin B receptor expressed in HEK293 cells (human) (UniProt P28336)
[2] = tested on: CFA-induced mechanical allodynia in mice; experiment: CFA-induced inflammatory pain, mechanical allodynia; assay type: in vivo, mouse; conditions: rofecoxib 10 mg/kg (legend: 1 mg/kg, subcutaneous); 1 h; 2 d after CFA; n = 7 - 9
Description: For experiments that several time points are needed to be checked in 24 h, von Frey test was used, as orofacial stimulation test can be checked only once a day, [32]. For the von Frey test, the mice were placed in metal mesh boxes and allowed 30 min for habituation before examination. Mechanical hypersensitivity was assessed as described in previous studies, [33]. In brief, the threshold was assessed with a set of von Frey hairs (0.02-2.56 g, Stoelting) applied to the whisker pad in an ascending series of trials, with three separate von Frey stimulations applied per series. The threshold was determined when mice moved their heads away briskly and strongly from at least one of the three stimuli. Dixon's up-down method was used to determine the 50% probability of escape threshold. For thermal test, a heat stimulus was applied to the maxillary whisker pad skin by radiant heat (IITC Life Science). Heat sensitivity was expressed as head-withdrawal latency (HWL). The radiant heat intensity was adjusted so that basal HWL is between 10-15 s, with a cut-off of 18 s to prevent tissue damage. Chronic inflammatory pain was induced by subcutaneous injection of 20 μL of complete Freund's adjuvant (CFA) into the left side of the buccal pad. […]

[3] = tested on: Nmb-induced mechanical hypersensitivity in mice; experiment: Nmb-induced mechanical hypersensitivity, effect of pretreatment (Figure 7C); assay type: in vivo, mouse; conditions: intra-TG TTA-P2 1 nmol prior to 1 nmol Nmb; 1 h; n = 8 - 10
Description: Mice were housed on a 12 h light/dark cycle, maintained in a humidity- and temperature-controlled room with water available ad libitum and were acclimated to the experimenter for 2 d before the first behavioural observations. Experimenters were blinded to the treatment or genotypes of the mice. As described previously, [31], an Orofacial Stimulation Test (Ugo Basile, Italy) was used for the measurement of hypersensitivity to the mechanical stimulation of the trigeminal area. Briefly, the mice initially underwent one week of adaptation trainings after a 12 h fasting food period. Each mouse was then placed in a cage in which there was an Orofacial Stimulation Test system. […] The contact number and total duration of time the mouse spent acquiring the reward were analyzed with the ORO software.
For experiments that several time points are needed to be checked in 24 h, von Frey test was used, as orofacial stimulation test can be checked only once a day, [32]. […] Mechanical hypersensitivity was assessed as described in previous studies, [33]. In brief, the threshold was assessed with a set of von Frey hairs (0.02-2.56 g, Stoelting) applied to the whisker pad in an ascending series of trials, with three separate von Frey stimulations applied per series. The threshold was determined when mice moved their heads away briskly and strongly from at least one of the three stimuli. […]

Chain of Human neuromedin B receptor expressed in HEK293 cells (human) (P28336 whole entry): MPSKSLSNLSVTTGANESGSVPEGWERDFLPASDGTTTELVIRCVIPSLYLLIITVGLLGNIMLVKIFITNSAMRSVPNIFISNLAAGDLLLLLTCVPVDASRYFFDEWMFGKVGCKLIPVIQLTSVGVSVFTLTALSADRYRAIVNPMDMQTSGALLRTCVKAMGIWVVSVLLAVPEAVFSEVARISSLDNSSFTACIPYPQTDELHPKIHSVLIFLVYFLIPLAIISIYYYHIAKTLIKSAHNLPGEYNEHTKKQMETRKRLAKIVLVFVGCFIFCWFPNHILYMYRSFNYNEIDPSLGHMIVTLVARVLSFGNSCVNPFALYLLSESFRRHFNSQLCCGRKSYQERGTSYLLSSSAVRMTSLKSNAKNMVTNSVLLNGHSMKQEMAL

Neuromedin B (peptide)
increase of Cav3.2 channel currents in HEK293 cells co-expressing human NmbR and Cav3.2, whole-cell patch clamp, dose-response of Nmb, EC50 [1]: 47.6 nM

CS(=O)(=O)c1ccc(C2=C(c3ccccc3)C(=O)OC2)cc1 [rofecoxib]
CFA-induced mechanical allodynia [2]: reversed; also recorded: reduced the mechanical allodynia

CC1(C)C[C@@H](CN2CCC(F)(CNC(=O)c3cc(Cl)cc(Cl)c3)CC2)CCO1 [TTA-P2]
effect on Nmb-induced mechanical hypersensitivity [3]: significantly attenuated mechanical hypersensitivity

Reference: publication PMC8490515, “Neuromedin B receptor stimulation of Cav3.2 T-type Ca^2+ channels in primary sensory neurons mediates peripheral pain hypersensitivity” (Theranostics, 2021)
